Data published in paper PMC5218480 (PLoS ONE, 2017).

Tested on: MV-4-11 cells
Assay: Gene expression microarray analysis (Affymetrix PrimeView) and GSEA
Assay type: cell-based, human
Parameters: RFU PODN (11730768_x_at) / Fold change /veh PODN (11730768_x_at) / RFU LINC00158 (11744669_a_at) / Fold change /veh LINC00158 (11744669_a_at) / RFU DUSP10 (11751237_a_at) / Fold change /veh DUSP10 (11751237_a_at) / RFU ID3 (11757404_x_at) / Fold change /veh ID3 (11757404_x_at) / RFU PLEKHG5 (11737974_s_at) / Fold change /veh PLEKHG5 (11737974_s_at) / RFU LRRC4B (11730491_at) / Fold change /veh LRRC4B (11730491_at) / RFU GIMAP4 (11747438_a_at) / Fold change /veh GIMAP4 (11747438_a_at) / RFU KRT8 (11758183_x_at) / Fold change /veh KRT8 (11758183_x_at) / RFU CNN1 (11734310_a_at) / Fold change /veh CNN1 (11734310_a_at) / RFU VPS37D (11726825_at) / Fold change /veh VPS37D (11726825_at) / RFU C10orf10 (11716522_x_at) / Fold change /veh C10orf10 (11716522_x_at) / RFU KIR2DL2 /// KIR2DL4 /// KIR2DL5A /// KIR2DL5B /// KIR2DS1 /// KIR2DS2 /// KIR2DS3 /// KIR2DS4 /// KIR3DL3 /// KIR3DL3 /// KIR3DS1 (11738374_at) / Fold change /veh KIR2DL2 /// KIR2DL4 /// KIR2DL5A /// KIR2DL5B /// KIR2DS1 /// KIR2DS2 /// KIR2DS3 /// KIR2DS4 /// KIR3DL3 /// KIR3DL3 /// KIR3DS1 (11738374_at) / RFU C1QL1 (11718748_at) / Fold change /veh C1QL1 (11718748_at) / RFU TMPRSS4 (11747572_a_at) / Fold change /veh TMPRSS4 (11747572_a_at) / RFU HAMP (11756126_x_at) / Fold change /veh HAMP (11756126_x_at) / RFU RNFT2 (11725882_a_at) / Fold change /veh RNFT2 (11725882_a_at) / RFU NR4A2 (11747474_a_at) / Fold change /veh NR4A2 (11747474_a_at) / RFU ABCC12 (11746883_a_at) / Fold change /veh ABCC12 (11746883_a_at) / RFU TMEM136 (11760407_x_at) / Fold change /veh TMEM136 (11760407_x_at) / RFU CLDN22 /// WWC2 (11732394_at) / Fold change /veh CLDN22 /// WWC2 (11732394_at) / RFU HLA-DPB1 (11760878_x_at) / Fold change /veh HLA-DPB1 (11760878_x_at) / RFU SPINT1 (11716480_a_at) / Fold change /veh SPINT1 (11716480_a_at) / RFU GAP43 (11754022_s_at) / Fold change /veh GAP43 (11754022_s_at) / RFU A4GNT (11735810_at) / Fold change /veh A4GNT (11735810_at) / RFU PRB3 (11715151_x_at) / Fold change /veh PRB3 (11715151_x_at) / RFU TUBB4B (11761932_at) / Fold change /veh TUBB4B (11761932_at) / RFU CAPN14 (11732068_a_at) / Fold change /veh CAPN14 (11732068_a_at) / RFU TMCC2 (11721928_a_at) / Fold change /veh TMCC2 (11721928_a_at) / RFU IRGQ (11745062_a_at) / Fold change /veh IRGQ (11745062_a_at) / RFU FAM174B (11720279_a_at) / Fold change /veh FAM174B (11720279_a_at) / RFU TMPRSS4 (11748680_a_at) / Fold change /veh TMPRSS4 (11748680_a_at) / RFU FAM212B (11763350_a_at) / Fold change /veh FAM212B (11763350_a_at) / RFU PLEKHG5 (11743358_a_at) / Fold change /veh PLEKHG5 (11743358_a_at) / RFU ZSCAN30 (11745921_a_at) / Fold change /veh ZSCAN30 (11745921_a_at) / RFU CMKLR1 (11741424_a_at) / Fold change /veh CMKLR1 (11741424_a_at) / RFU LOC101060620 /// MAPK8IP1 (11723275_at) / Fold change /veh LOC101060620 /// MAPK8IP1 (11723275_at) / RFU SPTSSB (11747773_x_at) / Fold change /veh SPTSSB (11747773_x_at) / RFU PRSS12 (11739890_at) / Fold change /veh PRSS12 (11739890_at) / RFU BIN1 (11741810_x_at) / Fold change /veh BIN1 (11741810_x_at) / RFU WNT11 (11732464_a_at) / Fold change /veh WNT11 (11732464_a_at) / RFU C10orf10 (11716521_a_at) / Fold change /veh C10orf10 (11716521_a_at) / RFU C5orf56 (11738089_at) / Fold change /veh C5orf56 (11738089_at) / RFU CYB561 (11721691_x_at) / Fold change /veh CYB561 (11721691_x_at) / RFU ANKRD19P (11752326_a_at) / Fold change /veh ANKRD19P (11752326_a_at) / RFU OR2T12 /// OR2T33 /// OR2T8 (11738714_s_at) / Fold change /veh OR2T12 /// OR2T33 /// OR2T8 (11738714_s_at) / RFU VCAN (11748164_a_at) / Fold change /veh VCAN (11748164_a_at) / RFU JSRP1 (11732532_at) / Fold change /veh JSRP1 (11732532_at) / RFU KRTAP10-11 (11738290_x_at) / Fold change /veh KRTAP10-11 (11738290_x_at) / RFU MYO3A (11730013_a_at) / Fold change /veh MYO3A (11730013_a_at) / RFU EBF3 (11725865_a_at) / Fold change /veh EBF3 (11725865_a_at) / RFU CAMK2N1 (11719241_x_at) / Fold change /veh CAMK2N1 (11719241_x_at) / RFU C5orf56 (11738088_a_at) / Fold change /veh C5orf56 (11738088_a_at) / RFU OLFML3 (11715873_a_at) / Fold change /veh OLFML3 (11715873_a_at) / RFU LOC100653217 /// NTM (11731650_a_at) / Fold change /veh LOC100653217 /// NTM (11731650_a_at) / RFU MAPK11 (11762145_a_at) / Fold change /veh MAPK11 (11762145_a_at) / RFU FIZ1 (11724087_x_at) / Fold change /veh FIZ1 (11724087_x_at) / RFU OASL (11726364_x_at) / Fold change /veh OASL (11726364_x_at) / RFU SOX15 (11748057_x_at) / Fold change /veh SOX15 (11748057_x_at) / RFU CD79A (11719716_a_at) / Fold change /veh CD79A (11719716_a_at) / RFU HIST1H1D (11736915_at) / Fold change /veh HIST1H1D (11736915_at) / RFU CASKIN2 (11723855_a_at) / Fold change /veh CASKIN2 (11723855_a_at) / RFU LOC730098 (11760151_x_at) / Fold change /veh LOC730098 (11760151_x_at) / RFU OR4N2 (11742367_at) / Fold change /veh OR4N2 (11742367_at) / RFU PRRT2 (11749266_a_at) / Fold change /veh PRRT2 (11749266_a_at) / RFU SNX32 (11753110_a_at) / Fold change /veh SNX32 (11753110_a_at) / RFU CDHR5 (11726645_a_at) / Fold change /veh CDHR5 (11726645_a_at) / RFU RCAN1 (11760418_a_at) / Fold change /veh RCAN1 (11760418_a_at) / RFU FAM167A (11723789_a_at) / Fold change /veh FAM167A (11723789_a_at) / RFU FAM26E (11764081_at) / Fold change /veh FAM26E (11764081_at) / RFU ISYNA1 (11749810_s_at) / Fold change /veh ISYNA1 (11749810_s_at) / RFU ACY1 (11761880_at) / Fold change /veh ACY1 (11761880_at) / RFU 11764098_at / Fold change /veh 11764098_at / RFU SAMD14 (11745864_x_at) / Fold change /veh SAMD14 (11745864_x_at) / RFU NPB (11741838_a_at) / Fold change /veh NPB (11741838_a_at) / RFU TMPRSS6 (11731388_a_at) / Fold change /veh TMPRSS6 (11731388_a_at) / RFU KRTAP10-2 (11738614_at) / Fold change /veh KRTAP10-2 (11738614_at) / RFU ARHGAP8 /// PRR5-ARHGAP8 (11727945_x_at) / Fold change /veh ARHGAP8 /// PRR5-ARHGAP8 (11727945_x_at) / RFU KRTAP5-7 /// NADSYN1 (11734609_at) / Fold change /veh KRTAP5-7 /// NADSYN1 (11734609_at) / RFU RASL12 (11751679_a_at) / Fold change /veh RASL12 (11751679_a_at) / RFU CDKN2B (11736163_a_at) / Fold change /veh CDKN2B (11736163_a_at) / RFU PRF1 (11729649_at) / Fold change /veh PRF1 (11729649_at) / RFU, ZNF638 /// ZNF638-IT1 / Fold change vs veh, ZNF638 /// ZNF638-IT1 / RFU, PANK3 / Fold change vs veh, PANK3 / RFU, SH3YL1 / Fold change vs veh, SH3YL1 / RFU, ZEB2 / Fold change vs veh, ZEB2 / RFU, NRIP1 / Fold change vs veh, NRIP1 / RFU, PTTG1IP / Fold change vs veh, PTTG1IP / RFU, CAPN2 / Fold change vs veh, CAPN2 / RFU, MED14 / Fold change vs veh, MED14 / RFU, SNORA58 / Fold change vs veh, SNORA58 / RFU, C1orf63 / Fold change vs veh, C1orf63 / RFU, LRRFIP1 / Fold change vs veh, LRRFIP1 / RFU, NDUFAF7 / Fold change vs veh, NDUFAF7 / RFU, SLC12A2 / Fold change vs veh, SLC12A2 / RFU, IBTK / Fold change vs veh, IBTK / RFU, ESF1 / Fold change vs veh, ESF1 / Fold change vs veh, TMEM50B / RFU, TAOK1 / Fold change vs veh, TAOK1 / RFU, ACBD3 / Fold change vs veh, ACBD3 / RFU, TMA16 / Fold change vs veh, TMA16 / RFU, RWDD3 / Fold change vs veh, RWDD3 / RFU, BCAT1 / Fold change vs veh, BCAT1 / RFU, EDEM3 / Fold change vs veh, EDEM3 / RFU, TMEM33 / Fold change vs veh, TMEM33 / RFU, WDR75 / Fold change vs veh, WDR75 / RFU, AHCTF1 / Fold change vs veh, AHCTF1 / RFU, TFRC / Fold change vs veh, TFRC / RFU, ZDHHC17 / Fold change vs veh, ZDHHC17 / RFU, NOM1 / Fold change vs veh, NOM1 / RFU, ARL8B / Fold change vs veh, ARL8B / RFU, ZBTB11 / Fold change vs veh, ZBTB11 / RFU, TAMM41 / Fold change vs veh, TAMM41 / RFU, KIAA1704 /// LOC100996395 / Fold change vs veh, KIAA1704 /// LOC100996395 / RFU, ING1 / Fold change vs veh, ING1 / RFU, TRMT61B / Fold change vs veh, TRMT61B / RFU, FUBP3 / Fold change vs veh, FUBP3 / RFU, TP53 / Fold change vs veh, TP53 / RFU, TNKS2 / Fold change vs veh, TNKS2 / RFU, ZFP14 / Fold change vs veh, ZFP14 / RFU, ACTR2 / Fold change vs veh, ACTR2 / RFU, PPP3R1 / Fold change vs veh, PPP3R1 / RFU, PIK3R1 / Fold change vs veh, PIK3R1 / RFU, HNRNPA1 / Fold change vs veh, HNRNPA1 / RFU, RNF170 / Fold change vs veh, RNF170 / RFU, ZNF28 / Fold change vs veh, ZNF28 / RFU, RNGTT / Fold change vs veh, RNGTT / RFU, OGT / Fold change vs veh, OGT / RFU, BRD1 / Fold change vs veh, BRD1 / RFU, MARS / Fold change vs veh, MARS / RFU, ZNF655 / Fold change vs veh, ZNF655 / RFU, FAHD1 / Fold change vs veh, FAHD1 / RFU, BDP1 / Fold change vs veh, BDP1 / RFU, LRRCC1 / Fold change vs veh, LRRCC1 / RFU, ARID1A / Fold change vs veh, ARID1A / RFU, ZNF146 / Fold change vs veh, ZNF146 / RFU, ZNF330 / Fold change vs veh, ZNF330 / RFU, GPN3 / Fold change vs veh, GPN3 / RFU, C9orf123 / Fold change vs veh, C9orf123 / RFU, N4BP2L2 / Fold change vs veh, N4BP2L2 / RFU, ARFIP1 / Fold change vs veh, ARFIP1 / RFU, FAM179B / Fold change vs veh, FAM179B / RFU, BCL10 / Fold change vs veh, BCL10 / RFU, UHRF1BP1L / Fold change vs veh, UHRF1BP1L / RFU, BET1 / Fold change vs veh, BET1 / RFU, CNOT2 / Fold change vs veh, CNOT2 / RFU, ZNF268 / Fold change vs veh, ZNF268 / Fold change vs veh, ZNF507 / RFU, DGCR2 / Fold change vs veh, DGCR2 / RFU, WDSUB1 / Fold change vs veh, WDSUB1 / Fold change vs veh, HSP90B1 /// MIR3652 / RFU, ADSS / Fold change vs veh, ADSS / RFU, GK / Fold change vs veh, GK / RFU, ZNF148 / Fold change vs veh, ZNF148 / RFU, TAF9 / Fold change vs veh, TAF9 / RFU, SLC1A5 / Fold change vs veh, SLC1A5 / RFU, SLMO2 / Fold change vs veh, SLMO2 / RFU, ABCC4 / Fold change vs veh, ABCC4 / RFU, LOC101060439 /// RAP1B / Fold change vs veh, LOC101060439 /// RAP1B / RFU, RFX7 / Fold change vs veh, RFX7 / RFU, GTPBP10 / Fold change vs veh, GTPBP10 / RFU, CNEP1R1 / Fold change vs veh, CNEP1R1 / RFU, BIVM-ERCC5 /// ERCC5 / Fold change vs veh, BIVM-ERCC5 /// ERCC5 / RFU, ILF3 / Fold change vs veh, ILF3 / RFU 11762660_at / Fold change /veh 11762660_at / RFU VCAN (11757783_s_at) / Fold change /veh VCAN (11757783_s_at) / RFU DDX43 (11728927_at) / Fold change /veh DDX43 (11728927_at) / RFU KRT8 (11758188_x_at) / Fold change /veh KRT8 (11758188_x_at) / RFU NKD1 (11759106_at) / Fold change /veh NKD1 (11759106_at) / RFU SRD5A1 (11742802_a_at) / Fold change /veh SRD5A1 (11742802_a_at) / RFU TPSAB1 /// TPSB2 (11721975_s_at) / Fold change /veh TPSAB1 /// TPSB2 (11721975_s_at) / RFU GSTM3 (11746129_a_at) / Fold change /veh GSTM3 (11746129_a_at) / RFU IL23R (11737362_x_at) / Fold change /veh IL23R (11737362_x_at) / RFU TMEM51 (11727254_a_at) / Fold change /veh TMEM51 (11727254_a_at) / RFU PIWIL2 (11732686_x_at) / Fold change /veh PIWIL2 (11732686_x_at) / RFU ORM1 (11744905_x_at) / Fold change /veh ORM1 (11744905_x_at) / RFU CCDC152 (11743942_at) / Fold change /veh CCDC152 (11743942_at) / RFU ECM1 (11717891_a_at) / Fold change /veh ECM1 (11717891_a_at) / RFU IL23R (11748794_a_at) / Fold change /veh IL23R (11748794_a_at) / RFU TNFAIP8L3 (11732012_x_at) / Fold change /veh TNFAIP8L3 (11732012_x_at) / RFU MBOAT4 (11741988_at) / Fold change /veh MBOAT4 (11741988_at) / RFU 11764193_at / Fold change /veh 11764193_at / RFU TMEM53 (11763286_at) / Fold change /veh TMEM53 (11763286_at) / RFU MAGEB2 (11727129_at) / Fold change /veh MAGEB2 (11727129_at) / RFU TMEM200A (11744735_a_at) / Fold change /veh TMEM200A (11744735_a_at) / RFU CCDC152 (11751479_a_at) / Fold change /veh CCDC152 (11751479_a_at) / RFU FAM211A (11726209_a_at) / Fold change /veh FAM211A (11726209_a_at) / RFU RGS16 (11746705_a_at) / Fold change /veh RGS16 (11746705_a_at) / RFU VCAN (11755009_s_at) / Fold change /veh VCAN (11755009_s_at) / RFU RHOB (11743442_s_at) / Fold change /veh RHOB (11743442_s_at) / RFU RGS16 (11720943_a_at) / Fold change /veh RGS16 (11720943_a_at) / RFU RGS16 (11720944_at) / Fold change /veh RGS16 (11720944_at) / RFU, VPS4B / Fold change vs veh, VPS4B / RFU, CREB1 / Fold change vs veh, CREB1 / RFU, DNAJC13 / Fold change vs veh, DNAJC13 / RFU, GNAQ / Fold change vs veh, GNAQ / RFU, CDK5R1 / Fold change vs veh, CDK5R1 / RFU, ZRANB3 / Fold change vs veh, ZRANB3 / RFU, CUL4A / Fold change vs veh, CUL4A / RFU, CCNY / Fold change vs veh, CCNY / RFU, UFL1 / Fold change vs veh, UFL1 / RFU, COG3 / Fold change vs veh, COG3 / RFU, DIAPH2 / Fold change vs veh, DIAPH2 / RFU, SKA2 / Fold change vs veh, SKA2 / RFU, AFF3 / Fold change vs veh, AFF3 / RFU, LMF1 / Fold change vs veh, LMF1 / RFU, IPO11 / Fold change vs veh, IPO11 / RFU, DFFB / Fold change vs veh, DFFB / RFU, FOXP1 / Fold change vs veh, FOXP1 / RFU, CARD8 / Fold change vs veh, CARD8 / RFU, STRN3 / Fold change vs veh, STRN3 / RFU, ADK / Fold change vs veh, ADK / RFU, RASSF2 / Fold change vs veh, RASSF2 / RFU, WIPF1 / Fold change vs veh, WIPF1 / RFU, LARP1B / Fold change vs veh, LARP1B / RFU, RASA1 / Fold change vs veh, RASA1 / RFU, RB1 / Fold change vs veh, RB1 / RFU, PPFIA1 / Fold change vs veh, PPFIA1 / RFU, MAT2A / Fold change vs veh, MAT2A / RFU, CCT5 / Fold change vs veh, CCT5 / RFU, WDR92 / Fold change vs veh, WDR92 / RFU, CUX1 / Fold change vs veh, CUX1 / RFU, TTC7A / Fold change vs veh, TTC7A / RFU, TMEM135 / Fold change vs veh, TMEM135 / RFU, DEPTOR / Fold change vs veh, DEPTOR / RFU, CPM / Fold change vs veh, CPM / RFU, DNAJB6 / Fold change vs veh, DNAJB6 / RFU, CACNA2D3 / Fold change vs veh, CACNA2D3 / RFU, DTX4 / Fold change vs veh, DTX4 / RFU, TFCP2 / Fold change vs veh, TFCP2 / RFU, GMCL1 /// GMCL1P1 / Fold change vs veh, GMCL1 /// GMCL1P1 / RFU, AEBP2 / Fold change vs veh, AEBP2 / RFU, SNHG1 /// SNORD22 /// SNORD25 /// SNORD26 /// SNORD27 /// SNORD28 /// SNORD29 /// SNORD31 / Fold change vs veh, SNHG1 /// SNORD22 /// SNORD25 /// SNORD26 /// SNORD27 /// SNORD28 /// SNORD29 /// SNORD31 / Fold change (Aza/veh), C12orf56 (ProbeSet 11735607_a_at) / Fold change (ACY-1035/veh), C12orf56 (ProbeSet 11735607_a_at) / Fold change (Aza/veh), FGFR1OP (ProbeSet 11751329_s_at) / Fold change (ACY-1035/veh), FGFR1OP (ProbeSet 11751329_s_at) / Fold change (Aza/veh), VPS36 (ProbeSet 11739960_a_at) / Fold change (ACY-1035/veh), VPS36 (ProbeSet 11739960_a_at) / RFU SYPL1 (11715823_x_at) / Fold change /veh SYPL1 (11715823_x_at) / RFU IGFBP7 (11715501_s_at) / Fold change /veh IGFBP7 (11715501_s_at) / RFU REEP3 (11722064_at) / Fold change /veh REEP3 (11722064_at) / RFU IGLL1 (11728026_x_at) / Fold change /veh IGLL1 (11728026_x_at): dose or concentration left out as unconfirmed
Conditions: ProbeSet 11725787_a_at; LIST B

Nc1ncn([C@@H]2O[C@H](CO)[C@@H](O)[C@H]2O)c(=O)n1 [azacitidine]
Fold change vs veh, TMA16: 0.94
